A word on the IC50: it is the concentration that gives 50% inhibition. The low end stands for greater potency in that assay, the high end for weaker potency in that assay. By melting point is commonly meant the temperature, or range, at which the solid turns liquid.

The target in series [1] is T1, Neu1 sialidase (Mus musculus, UniProt O35657).
T1 construct: endogenous in cells; host or cells: RAW-blue macrophage cells
The experiment in a line: LPS-induced Neu1 sialidase activity in live RAW-blue macrophage cells (4MU-NeuAc fluorescence). Type of series: cell-based. Conditions: for IC50: LPS-induced sialidase activity on the cell surface of live RAW-blue macrophage cells, substrate 4MU-NeuAc, fluorescence at 1-2 min. Here is the method: Inhibitory Potency of Compounds of the Application on Lipopolysaccharide (LPS)-Induced Neu1 Sialidase Activity in Live Raw-Blue Macrophage Cells
Compounds of the application were assessed for antiviral activity using an assay that detects sialidase activity on the surface of viable cells. […] Fluorescent images were taken at 1-2 minutes after adding the substrate using epi-fluorescent microscopy (40× objective). The mean fluorescence surrounding the cells for each of the images was measured using Image J software.

For `CC(=O)N[C@@H]1/C(=N/O)C=C(C(=O)O)[C@H]2OC(C)(C)O[C@H]21` [Compound 17, Sodium (3aR,7R,7aS,E)-7-acetamido-6-(hydroxyimino)-2,2-dimethyl-3a,6,7,7a-tetrahydrobenzo[d][1,3]dioxole-4-carboxylate], 0.0127 µM corresponded to half-maximal inhibition in series [1] (IC50).
Take `CCOC(=O)C1=C[C@@H](OC(CC)CC)[C@H](NC(C)=O)[C@@H](NC(=O)OC(C)(C)C)C1` [Compound 15, (3R,4R,5S)-ethyl 4-acetamido-5-(tert-butoxycarbonylamino)-3-(pentan-3-yloxy)cyclohex-1-enecarboxylate]: the melting point was 144 to 145 °C.
`CCOC(=O)C1=C[C@@H]2OC(C)=N[C@@H]2[C@@H](NC(=O)OC(C)(C)C)C1` [Compound 14, (3aR,4S,7aS)-ethyl 4-(tert-butoxycarbonylamino)-2-methyl-3a,4,5,7a-tetrahydrobenzo[d]oxazole-6-carboxylate] returned a melting point of 45 to 49 °C.
Regarding `CCOC(=O)C1=C[C@@H](OC(CC)CC)[C@H](NC(C)=O)[C@@H](N)C1` [oseltamivir phosphate 1a (Tamiflu ®), oseltamivir phosphate, reference compound], the “inhibition of LPS-induced sialidase activity” value in series [1] (RAW-blue macrophage cells, dose dependent manner) is “completely inhibited”.
In series [1], `CC(=O)N[C@@H]1C=C[C@@](O)(C(=O)O)[C@H]2OC(C)(C)O[C@@H]12` [Compound 16, Sodium (3aS,4S,7R,7aS)-7-acetamido-4-hydroxy-2,2-dimethyl-3a,4,7,7a-tetrahydrobenzo[d][1,3]dioxole-4-carboxylate] registered a half-inhibitory concentration (IC50) of 0.14 µM.
On the same count and under the same terms, in the case of `CC(=O)N[C@H]1[C@@H]2OC(C)(C)O[C@@H]2C(C(=O)O)=C[C@H]1O` [Compound 19, Sodium (3aR,6R,7R,7aS)-7-acetamido-6-hydroxy-2,2-dimethyl-3a,6,7,7a-tetrahydrobenzo[d][1,3]dioxole-4-carboxylate] it was 7.41 µM.

These data come from patent US8716333B2, “Process and compounds for the manufacture of oseltamivir and analogs thereof, and new antiviral agents” (Brock University, priority 2009, dated 2014).
